Reference: patent publication US6391871B1 (priority 1996, dated 2002)
“Also recorded” adds a separate entry of the source. Where two headings read alike, the source gives them in different places.

Columns and labels:
NMDA receptors = assay type: cell-based, chick
Protocol: Potency rating=minimum concentration required to provide total protection against neurotoxic effects of NMDA (40 μM) in chick embryo retinal tissue tests
These experiments were performed using segments of chick embryo retina. This is a widely used model for studying the production and prevention of excitotoxic phenomena, since it is a simple and inexpensive preparation, and since chick tissue provides a better model of adult mammalian neurons than embryonic or juvenile mammalian tissue. All of the glutamate receptors that mediate excitotoxic phenomena are present in chick retinas, and are sensitive to excitotoxic stimulation. By contrast, in embryonic or juvenile mammalian tissue, various glutamate receptors are not fully matured and are not responsive in the same ways that occur in adult mammalian tissue.
In these tests, NMDA is introduced into the incubation medium in a concentration ([…]) sufficient to produce a fully developed excitotoxic lesion within 30 min, displaying acute degeneration and necrosis of the majority of neurons in the inner layers of the retina. The control retinas are incubated with NMDA alone, and experimental retinas are incubated with NMDA plus a test compound that is being evaluated for NMDA antagonist properties. […] All agents that prevent NMDA from hyperactivating NMDA receptors and thereby inducing an excitotoxic neurodegenerative reaction in the chick embryo retina are considered appropriate candidate drugs for preventing NMDA receptor hyperactivation and NMDA receptor burnout in the presymptomatic stages of Alzheimer's disease.
The concentration of the test compound required to prevent NMDA from inducing neuronal degeneration in the chick retina tissue is considered a measure of its expected potency for preventing NMDA receptor hyperactivation and NMDA receptor burnout in the presymptomatic stages of Alzheimer's disease.

vacuolated PC/RS neurons = experiment: Safener assay: prevention of MK-801-induced vacuole formation in PC/RS neurons; settings: for ED50: 4 h; for blocking of MK-801 neurotoxicity / vacuole formation: tested against MK-801
Protocol: For each test agent, at least 5 dosages of the candidate safener agent were tested, and at least 4 rats were used in each dosage group.
The rats were sacrificed four hours after treatment, for histopathological evaluation. The number of vacuolated PC/RS neurons were counted on each side of the brain, at a rostrocaudal level immediately posterior to where the corpus callosum ceases decussating across the midline (approximately 5.6 mm caudal to bregma).
The result was subtracted from one and multiplied by 100, to calculate a percentage.
The confidence limits, in the right column, were the safener dosages that reduced vacuoles by 25% and 75%.

[1] = tested on: pyramidal neurons in layers III and IV of the posterior cingulate and retrosplenial (PC/RS) cortices; settings: rat, in vivo; for neurotoxic (vacuole) reaction in PC/RS cortex, drug by itself: ip
sigma receptors = settings: cited from earlier work
[2] = tested on: pyramidal neurons in layers III and IV of the posterior cingulate and retrosplenial (PC/RS) cortices; experiment: In vivo assay of toxic side effects of NMDA antagonists (vacuole formation in PC/RS cortex)
[3] = tested on: NMDA receptors in the hypothalamus; experiment: NMDA receptor hyperactivation in the hypothalamic-pituitary neuroendocrine regulatory system; settings: for damage to the reproductive regulatory (NMDA receptor) system: high dose, rats
Protocol: The explanation for this is that normally, neurons in the hypothalamus that have NMDA receptors on their surface are activated by the excitatory transmitter, glutamate, which causes them to send a message to the pituitary resulting in pituitary release of LH. When NMDA is administered, it enters the hypothalamus and mimics glutamate by acting at the same NMDA receptors that glutamate would activate. This triggers the same sequence of events that glutamate would normally trigger. The action of glutamate at these NMDA receptors represents a physiological mechanism by which glutamate normally regulates the amount of reproductive hormones (e.g., LH) that circulate in the blood. For a detailed review describing this neuroendocrine regulatory system, see Olney and Price 1978.
These excitotoxic molecules (NMDA or glutamate) enter the hypothalamus and hyperactivate NMDA receptors so vigorously and continuously that it destroys the NMDA receptor system, and leaves it permanently unresponsive to subsequent stimulation, either by exogenously administered NMDA, or by endogenous glutamate.
Affected animals develop a neuroendocrine deficiency syndrome, which leads to symptoms such as obesity, sterility, and ongoing degeneration of their reproductive organs.

cerebrocortical neurons = settings: Olney et al 1989, Corso et al 1994; cited from earlier work
[4] = tested on: neurons in neocortical and limbic brain regions; experiment: Histopathology of rat brain after PCP/pilocarpine treatment; assay type: in vivo; settings: even at very high dosages
Protocol: Adult female rats were injected subcutaneously with an NMDA antagonist drug, phencyclidine (PCP), at 50 milligrams of drug per kilogram of body weight (mg/kg sc), accompanied by a small dose of a muscarinic agonist, pilocarpine (10 mg/kg sc). At various times (4, 16, 24, 48, 72 and 96 hours) after treatment, the rats were anesthetized and perfused with fixative to allow their brains to be prepared for histological evaluation.
Degenerating neurons in various brain regions were also examined by electron microscopy, to obtain evidence for loss of synaptic complexes, and a computer-assisted cell plotting system was used to plot the location and count the frequency with which degenerating neurons were found in each brain region.
Massive loss of neurons throughout many neocortical and limbic brain regions is a hallmark characteristic of Alzheimer's disease. To establish that the NR/hypo mechanism results not only in cell injury but in cell death, the Applicants systematically examined the brains of rats 4 days following PCP/pilocarpine treatment. Sections prepared at 1 millimeter intervals from one side of the brain were stained, using hematoxylin and eosin; sections prepared at 1 millimeter intervals from the other side of the brain were stained using a silver impregnation stain. […]

[5] = NMDA 40 μM, chick embryo retinal tissue
[6] = dose reducing mean number of vacuolated PC/RS neurons to 50% of MK-801 (0.5 mg/kg sc) controls, rats

## O=C(O)c1cc(O)c2ccc(Cl)cc2n1 [7-CL-Kynurenic acid, 7-chloro-kynurenic acid]
NMDA receptors
  POTENCY RATING = minimum concentration required to provide total protection against neurotoxic effects of NMDA: 50 µM

## CN1[C@@H]2CC[C@H]1C[C@@H](OC(c1ccccc1)c1ccccc1)C2 [Benztropine]
Vacuolated PC/RS neurons; Rattus norvegicus, Neuron, sc
  ED50: 1.29 mg/kg

## O=C(O)[C@@H]1C[C@H](CP(=O)(O)O)CCN1 [CGS 19755]
NMDA receptors; [5]
  POTENCY RATING = minimum concentration required to provide total protection against neurotoxic effects of NMDA: 5 µM

## N#Cc1cc2[nH]c(=O)c(=O)[nH]c2cc1[N+](=O)[O-] [CNQX]
NMDA receptors
  POTENCY RATING = minimum concentration required to provide total protection against neurotoxic effects of NMDA: 200 µM

## O=C(O)C1CN(CCCP(=O)(O)O)CCN1 (stereo not drawn) [CPP]
NMDA receptors; [5]
  POTENCY RATING = minimum concentration required to provide total protection against neurotoxic effects of NMDA: 10 µM

## Clc1cccc(Cl)c1N=C1NCCN1 [Clonidine]
Vacuolated PC/RS neurons; Rattus norvegicus, Neuron, sc
  ED50: 0.044 mg/kg

## CN1CCN(C2=Nc3cc(Cl)ccc3Nc3ccccc32)CC1 [Clozapine]
Vacuolated PC/RS neurons; Rattus norvegicus, Neuron, sc
  ED50: 2.8 mg/kg

## N[C@H](CCCP(=O)(O)O)C(=O)O [D-AP5, D-2-amino-5-phosphonopentanoic acid]
NMDA receptors; [5]
  POTENCY RATING = minimum concentration required to provide total protection against neurotoxic effects of NMDA: 25 µM

## O=[N+]([O-])c1cc2nc(O)c(O)nc2cc1[N+](=O)[O-] [DNQX]
NMDA receptors; [5]
  POTENCY RATING = minimum concentration required to provide total protection against neurotoxic effects of NMDA: 100 µM

## COc1cc(CC(C)N)c(OC)cc1Br (stereo not drawn) [DOB]
Vacuolated PC/RS neurons; [6]
  ED50: 0.36 mg/kg, ip

## COc1cc(CC(C)N)c(OC)cc1I (stereo not drawn) [DOI]
Vacuolated PC/RS neurons; [6]
  ED50: 1.05 mg/kg, ip

## COc1ccc2c(c1)[C@]13CCCC[C@@H]1[C@H](C2)N(C)CC3 [Dextromethorphan]
NMDA receptors; [5]
  POTENCY RATING = minimum concentration required to provide total protection against neurotoxic effects of NMDA: 25 µM

## CN1C(=O)CN=C(c2ccccc2)c2cc(Cl)ccc21 [Diazepam]
Vacuolated PC/RS neurons; Rattus norvegicus, Neuron, sc
  ED50: 1 mg/kg

## OC(CN1CCC(Cc2ccc(F)cc2)CC1)c1ccc(Cl)cc1 (stereo not drawn) [Eliprodil]
NMDA receptors
  NMDA antagonist properties in the chick retina assay: definite NMDA antagonist properties
  POTENCY RATING = minimum concentration required to provide total protection against neurotoxic effects of NMDA: 30 µM
[1]; female, Sprague Dawley, 4 h
  neurotoxic (vacuole) reaction in PC/RS cortex, drug by itself: neither SKF (+)10,047 by itself, nor eliprodil by itself, caused a vacuole reaction
[1]
  neurotoxic reaction in the PC/RS cortex at the highest dose tested: did not cause a neurotoxic reaction
  neurotoxic (vacuole) reaction in PC/RS cortex, drug by itself: did not cause this neurotoxic reaction
Sigma receptors
  binding at sigma receptors: strong binding activity at sigma receptors
[2]; rats
  nearly a lethal dose (highest dose tested): 100 mg/kg/ip

## CN1CCN(C2=Nc3cc(F)ccc3Cc3ccccc32)CC1 [Fluperlapine]
Vacuolated PC/RS neurons; Rattus norvegicus, Neuron, sc
  ED50: 2.4 mg/kg

## N=C(N)N/N=C/c1c(Cl)cccc1Cl [Guanabenz]
Vacuolated PC/RS neurons; Rattus norvegicus, Neuron, sc
  ED50: 0.21 mg/kg

## O=C(CCCN1CCC(O)(c2ccc(Cl)cc2)CC1)c1ccc(F)cc1 [Haloperidiol]
Vacuolated PC/RS neurons; Rattus norvegicus, Neuron, sc
  ED50: 5.1 mg/kg

## CC(C(O)c1ccc(O)cc1)N1CCC(Cc2ccccc2)CC1 (stereo not drawn) [Ifenprodil]
NMDA receptors
  POTENCY RATING = minimum concentration required to provide total protection against neurotoxic effects of NMDA: 50 µM

## CCN(CC)C(=O)N[C@H]1C=C2c3cccc4[nH]cc(c34)C[C@H]2N(C)C1 [Lisuride]
Vacuolated PC/RS neurons
  blocking of MK-801 neurotoxicity / vacuole formation: block MK-801 toxicity

## CC(Oc1c(Cl)cccc1Cl)C1=NCCN1 (stereo not drawn) [Lofexidine]
Vacuolated PC/RS neurons; Rattus norvegicus, Neuron, sc
  ED50: 0.38 mg/kg

## C[C@]12N[C@H](Cc3ccccc31)c1ccccc12 [MK-801, (+)-5-methyl-10,11-dihydro-5H-di[a,d]-cyclohepten-5,10-imine]
NMDA receptors
  POTENCY RATING = minimum concentration required to provide total protection against neurotoxic effects of NMDA: […]
Vacuolated PC/RS neurons; MK-801 0.5 mg/kg sc, all treated rats
  neurotoxic reaction induced by MK-801: fully developed neurotoxic reaction

## CN[C@H](CC(=O)O)C(=O)O [NMDA, n-methyl-D-aspartate]
[3]; NMDA subcutaneously or intravenously, rodents
  pituitary secretion of reproductive hormones (LH): causing the pituitary gland to secrete into the blood certain reproductive hormones such as luteinizing hormone
[3]
  damage to the reproductive regulatory (NMDA receptor) system: permanently damage and inactivate this reproductive regulatory system

## Cc1cc2c(s1)Nc1ccccc1N=C2N1CCN(C)CC1 [Olanzapine]
Vacuolated PC/RS neurons; Rattus norvegicus, Neuron, sc
  ED50: 0.6 mg/kg

## CCCC(C)C1(CC)C(=O)NC(=O)NC1=O (stereo not drawn) [Pentobarbital]
Vacuolated PC/RS neurons; Rattus norvegicus, Neuron, sc
  ED50: 13.1 mg/kg

## OC(CCN1CCCC1)(c1ccccc1)C1CCCCC1 (stereo not drawn) [Procyclidine]
NMDA receptors; [5]
  POTENCY RATING = minimum concentration required to provide total protection against neurotoxic effects of NMDA: 15 µM

## C[C@@H]1CN(CCCn2c3ccccc3c3ccccc32)C[C@H](C)N1 [Rimcazole]
Vacuolated PC/RS neurons; Rattus norvegicus, Neuron, sc
  ED50: 17.8 mg/kg

## C=CCN1CC[C@]2(C)c3cc(O)ccc3C[C@H]1[C@H]2C [SKF (+)10,047]
[2]; adult female rats, ip, sacrificed four hours after treatment
  neurotoxic (vacuole) reaction in PC/RS cortex, drug by itself: neither SKF (+)10,047 by itself, nor eliprodil by itself, caused a vacuole reaction; also recorded: neither SKF (+)10,047 nor ibogaine by itself caused vacuoles

## CN1[C@@H]2C[C@@H](OC(=O)[C@H](CO)c3ccccc3)C[C@H]1[C@@H]1O[C@@H]12 [Scopolamine]
Vacuolated PC/RS neurons; Rattus norvegicus, Neuron, sc
  ED50: 0.13 mg/kg

## C=CCC1(C(C)CCC)C(=O)NC(=O)NC1=O (stereo not drawn) [Secobarbital]
Vacuolated PC/RS neurons; Rattus norvegicus, Neuron, sc
  ED50: 15.3 mg/kg

## CSc1ccc2c(c1)N(CCC1CCCCN1C)c1ccccc1S2 (stereo not drawn) [Thioridazine]
Vacuolated PC/RS neurons; Rattus norvegicus, Neuron, sc
  ED50: 55.3 mg/kg

## CCNC1(c2cccs2)CCCCC1=O (stereo not drawn) [Tiletamine]
NMDA receptors; [5]
  POTENCY RATING = minimum concentration required to provide total protection against neurotoxic effects of NMDA: 5 µM
Cerebrocortical neurons
  pathological changes in cerebral cortex / corticolimbic regions of adult rats: cause pathological changes in the cerebral cortex of adult rats

## OC(CCN1CCCCC1)(c1ccccc1)C1CCCCC1 (stereo not drawn) [Trihexyphenidyl]
Vacuolated PC/RS neurons; Rattus norvegicus, Neuron, sc
  ED50: 2.14 mg/kg
Sigma receptors
  binding at sigma receptors: strong binding affinity not only to muscarinic receptors, but also to sigma receptors

## N[C@@H](CCC(=O)O)C(=O)O [glutamate]
[3]
  damage to the reproductive regulatory (NMDA receptor) system: permanently damage and inactivate this reproductive regulatory system

## FC(F)(F)C(Cl)Br (stereo not drawn) [halothane]
Vacuolated PC/RS neurons
  blocking of MK-801 neurotoxicity / vacuole formation: effectively block vacuole formation

## FC(F)OC(Cl)C(F)(F)F (stereo not drawn) [isoflurane]
Vacuolated PC/RS neurons
  blocking of MK-801 neurotoxicity / vacuole formation: effectively block vacuole formation

## Clc1cc(I)cc(Cl)c1NC1=NCCN1 [p-Iodoclonidine]
Vacuolated PC/RS neurons; [6]
  ED50: 1.3 mg/kg, ip

## CC[C@@H]1C(=O)OC[C@@H]1Cc1cncn1C [pilocarpine]
[4]
  brain damage by pilocarpine by itself: does not and cannot cause the type of damage observed in these tests

## CC(C)c1cccc(C(C)C)c1O [propofol]
Vacuolated PC/RS neurons
  blocking of MK-801 neurotoxicity / vacuole formation: effectively block vacuole formation

## Ibogaine
NMDA receptors
  NMDA antagonist properties in the chick retina assay: definite NMDA antagonist properties
NMDA receptors; [5]
  POTENCY RATING = minimum concentration required to provide total protection against neurotoxic effects of NMDA: 15 µM
Sigma receptors
  binding at sigma receptors: strong binding affinity at sigma receptors
